Laboratory results from patent US9452992B2 (priority 2011, dated 2016).
Entries after “also recorded” stand apart in the source; their conditions may differ.

Experiments:
EBOV Zaire-1995 = assay type: cell-based, Ebola virus Zaire; settings: 96 h
[1] = tested on: thermolysin-cleaved VSV EboV GP particles; assay type: cell-based, Ebola virus Zaire
cathepsin B = cathepsin B (Homo sapiens, UniProt P07858); assay type: biochemical
[2] = tested on: VSV particles pseudotyped with EboV Zaire GP; assay type: cell-based, Ebola virus Zaire
[3] = tested on: VSV particles pseudotyped with VSV G; assay type: cell-based, vesicular stomatitis virus
HeLa cells = assay type: cell-based, human
[4] = target: binding of cleaved EboV GPΔTM to NPC1 membranes (Mus musculus, UniProt O35604)
Sequence of binding of cleaved EboV GPΔTM to NPC1 membranes (O35604 23-1277 limits assumed, stated change not applied): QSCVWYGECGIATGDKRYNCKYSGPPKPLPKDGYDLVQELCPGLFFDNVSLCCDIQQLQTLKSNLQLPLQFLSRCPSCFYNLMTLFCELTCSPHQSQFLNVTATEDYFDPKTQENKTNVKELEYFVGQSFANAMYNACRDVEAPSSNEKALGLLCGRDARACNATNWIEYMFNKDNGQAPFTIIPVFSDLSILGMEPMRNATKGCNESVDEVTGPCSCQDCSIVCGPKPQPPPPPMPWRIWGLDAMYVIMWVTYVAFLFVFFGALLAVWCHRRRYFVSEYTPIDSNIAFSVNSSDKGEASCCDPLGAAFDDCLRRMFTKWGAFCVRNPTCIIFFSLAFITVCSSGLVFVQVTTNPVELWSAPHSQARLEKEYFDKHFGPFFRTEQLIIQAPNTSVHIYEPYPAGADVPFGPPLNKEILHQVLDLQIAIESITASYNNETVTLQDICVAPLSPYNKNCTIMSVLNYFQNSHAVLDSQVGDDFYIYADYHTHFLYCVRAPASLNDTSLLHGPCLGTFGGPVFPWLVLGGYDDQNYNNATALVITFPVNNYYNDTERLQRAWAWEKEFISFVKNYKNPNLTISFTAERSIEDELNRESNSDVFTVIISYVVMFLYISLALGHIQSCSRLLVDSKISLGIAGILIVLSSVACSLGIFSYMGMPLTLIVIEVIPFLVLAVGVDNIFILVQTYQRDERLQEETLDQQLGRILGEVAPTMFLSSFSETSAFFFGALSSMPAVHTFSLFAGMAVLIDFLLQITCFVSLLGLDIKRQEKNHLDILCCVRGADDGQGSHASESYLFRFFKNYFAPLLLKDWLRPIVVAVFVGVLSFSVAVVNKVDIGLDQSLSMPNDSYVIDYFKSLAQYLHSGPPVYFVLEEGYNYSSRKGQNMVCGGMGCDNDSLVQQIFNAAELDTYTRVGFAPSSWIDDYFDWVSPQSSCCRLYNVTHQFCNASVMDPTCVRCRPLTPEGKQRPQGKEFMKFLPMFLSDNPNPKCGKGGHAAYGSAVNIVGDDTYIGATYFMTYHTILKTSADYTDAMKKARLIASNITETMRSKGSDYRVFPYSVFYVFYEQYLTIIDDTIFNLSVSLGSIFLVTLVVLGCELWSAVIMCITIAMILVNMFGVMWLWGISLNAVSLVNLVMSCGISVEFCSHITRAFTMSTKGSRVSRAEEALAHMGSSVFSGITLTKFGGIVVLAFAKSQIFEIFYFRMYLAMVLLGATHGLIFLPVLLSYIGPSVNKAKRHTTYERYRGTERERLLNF

EboV = tested on: EboV; set-up: species or system Ebola virus
NPC1 = target: T1, NPC1 (Homo sapiens, UniProt O15118); assay type: binding
T1 construct: expressed in transfected cells; host or cells: CHO/NPC1-1 (CHOhNPC1) cells; 15,000 g membrane pellet
T1 sequence (O15118 23-1278): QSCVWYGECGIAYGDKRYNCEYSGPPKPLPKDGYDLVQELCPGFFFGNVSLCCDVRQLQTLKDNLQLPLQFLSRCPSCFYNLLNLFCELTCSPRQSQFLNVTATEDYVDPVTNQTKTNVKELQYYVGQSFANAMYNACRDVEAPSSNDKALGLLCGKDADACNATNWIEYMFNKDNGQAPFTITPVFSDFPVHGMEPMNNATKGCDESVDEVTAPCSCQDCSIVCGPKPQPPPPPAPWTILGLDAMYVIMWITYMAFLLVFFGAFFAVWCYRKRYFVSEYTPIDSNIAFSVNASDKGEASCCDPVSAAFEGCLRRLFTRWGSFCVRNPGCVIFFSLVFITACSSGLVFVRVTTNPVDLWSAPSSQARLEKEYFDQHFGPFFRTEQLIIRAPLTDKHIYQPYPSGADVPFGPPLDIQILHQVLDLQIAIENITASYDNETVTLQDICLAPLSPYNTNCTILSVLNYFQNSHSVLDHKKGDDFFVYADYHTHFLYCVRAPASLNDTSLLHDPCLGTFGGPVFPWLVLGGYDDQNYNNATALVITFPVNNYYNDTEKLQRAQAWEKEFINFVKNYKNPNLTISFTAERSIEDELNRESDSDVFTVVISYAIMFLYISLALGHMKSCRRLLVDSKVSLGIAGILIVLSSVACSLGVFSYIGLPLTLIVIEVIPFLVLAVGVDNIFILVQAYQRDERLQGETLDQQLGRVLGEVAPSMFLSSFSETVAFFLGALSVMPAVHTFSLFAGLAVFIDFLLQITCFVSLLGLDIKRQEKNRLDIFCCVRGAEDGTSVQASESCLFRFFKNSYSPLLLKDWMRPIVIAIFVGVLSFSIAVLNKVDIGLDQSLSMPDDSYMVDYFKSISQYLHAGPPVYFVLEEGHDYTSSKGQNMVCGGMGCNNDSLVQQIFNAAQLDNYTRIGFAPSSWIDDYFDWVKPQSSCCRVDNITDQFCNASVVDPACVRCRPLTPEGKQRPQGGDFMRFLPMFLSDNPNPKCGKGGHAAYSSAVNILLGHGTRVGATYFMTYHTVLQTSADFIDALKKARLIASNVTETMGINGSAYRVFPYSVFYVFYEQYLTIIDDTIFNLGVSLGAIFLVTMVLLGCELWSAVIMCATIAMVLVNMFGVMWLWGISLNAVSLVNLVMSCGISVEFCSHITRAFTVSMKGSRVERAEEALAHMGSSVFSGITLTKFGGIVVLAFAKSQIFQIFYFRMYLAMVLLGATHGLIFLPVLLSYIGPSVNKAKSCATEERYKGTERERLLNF

[5] = tested on: Ebola virus Zaire-Maying a encoding GFP; assay type: cell-based

O=C(CC12CC3CC(CC(C3)C1)C2)NCC(=O)N1CCN(Cc2ccccc2)CC1 [3.0, 2-((3r,5r,7r)-adamantan-1-yl)-N-(2-(4-benzylpiperazin-1-yl)-2-oxoethyl)acetamide]
reduction of EboV growth on Vero cells (EBOV Zaire-1995): > 99%
inhibition of infection by thermolysin-treated VSV EboV particles [1]: inhibited infection
effect on cathepsin B activity (cathepsin B): no effect was observed
inhibition of EboV GP infection in the screen [2]: more than 80%
inhibition of EboV GP-dependent infection of Vero cells [2]: inhibits infection
inhibition of VSV G-dependent infection of Vero cells [3]: not
cholesterol uptake from LE/LY into cells (HeLa cells): inhibit cholesterol uptake
induction of filipin-labelled cytoplasmic vacuoles (HeLa cells): developed cytoplasmic vacuoles
inhibition of binding of cleaved EboV GPΔTM to NPC1 membranes [4]: inhibited binding

CCN(CC)CCO[C@H]1CC[C@@]2(C)C(=CC[C@@H]3[C@@H]2CC[C@]2(C)C(=O)CC[C@@H]32)C1 [U18666A, reference compound]
inhibition of binding of cleaved EboV GPΔTM to NPC1 membranes [4]: does not inhibit binding

CCCCc1oc2ccccc2c1C(=O)c1cc(I)c(OCCN(CC)CC)c(I)c1 [amiodarone]
anti-EboV activity (EboV): weak anti-EboV activity

COC(=O)c1ccc(COc2ccccc2CN2CCN(C(=O)CNC(=O)CC34CC5CC(CC(C5)C3)C4)CC2)cc1 [compound 3.48, methyl 4-((2-((4-(2-(2-((3r,5r,7r)-adamantan-1-yl)acetamido)acetyl)piperazin-1-yl)methyl)phenoxy)methyl)benzoate]
inhibition of infection by thermolysin-treated VSV EboV particles [1]: inhibited infection
effect on cathepsin B activity (cathepsin B): no effect was observed
potency as measured by a single cycle of EboV GP-dependent infection, relative to 3.0 [2]: increased the potency
inhibition of cross-linking of 3.105 to NPC1 (NPC1): inhibited
efficacy as measured by growth of EboV on Vero cells, relative to 3.0 [5]: increased
cholesterol uptake from LE/LY into cells (HeLa cells): inhibit cholesterol uptake
induction of filipin-labelled cytoplasmic vacuoles (HeLa cells): developed cytoplasmic vacuoles
inhibition of binding of cleaved EboV GPΔTM to NPC1 membranes [4]: blocked; also recorded: inhibited binding

C#Cc1ccc(COc2ccc(N=[N+]=[N-])cc2CN2CCN(C(=O)CNC(=O)CC34CC5CC(CC(C5)C3)C4)CC2)cc1 [compound 3.105, 2-((3r,5r,7r)-adamantan-1-yl)-N-(2-(4-(5-azido-2-((4-ethynylbenzyl)oxy)benzyl)piperazin-1-yl)-2-oxoethyl)acetamide]
inhibition of EboV GP-dependent infection of Vero cells [2]: has anti-EboV activity
cross-linking to NPC1 (NPC1): cross-linked

COc1ccc([C@@H]2Sc3ccccc3N(CCN(C)C)C(=O)[C@@H]2OC(C)=O)cc1 [diltiazen]
anti-EboV activity (EboV): weak anti-EboV activity

CC/C(=C(\c1ccccc1)c1ccc(OCCN(C)C)cc1)c1ccccc1 [tamoxifen]
anti-EboV activity (EboV): weak anti-EboV activity
